SMILES strings stand for the structures.

Drawing on ChEMBL document CHEMBL5465560, “Selectivity Literature for EUbOPEN Chemogenomic Library” (2024), this text covers % of control and % of inhibition for ten molecules.

Assay [1] has as its target TGF-beta receptor type-2 (Homo sapiens) (UniProt P37173). The settings on record: at 10 µM.
Assay [2] concerns the target T1, Serine/threonine-protein kinase TAO1 (Homo sapiens) (UniProt Q7L7X3).
T1 sequence (whole entry): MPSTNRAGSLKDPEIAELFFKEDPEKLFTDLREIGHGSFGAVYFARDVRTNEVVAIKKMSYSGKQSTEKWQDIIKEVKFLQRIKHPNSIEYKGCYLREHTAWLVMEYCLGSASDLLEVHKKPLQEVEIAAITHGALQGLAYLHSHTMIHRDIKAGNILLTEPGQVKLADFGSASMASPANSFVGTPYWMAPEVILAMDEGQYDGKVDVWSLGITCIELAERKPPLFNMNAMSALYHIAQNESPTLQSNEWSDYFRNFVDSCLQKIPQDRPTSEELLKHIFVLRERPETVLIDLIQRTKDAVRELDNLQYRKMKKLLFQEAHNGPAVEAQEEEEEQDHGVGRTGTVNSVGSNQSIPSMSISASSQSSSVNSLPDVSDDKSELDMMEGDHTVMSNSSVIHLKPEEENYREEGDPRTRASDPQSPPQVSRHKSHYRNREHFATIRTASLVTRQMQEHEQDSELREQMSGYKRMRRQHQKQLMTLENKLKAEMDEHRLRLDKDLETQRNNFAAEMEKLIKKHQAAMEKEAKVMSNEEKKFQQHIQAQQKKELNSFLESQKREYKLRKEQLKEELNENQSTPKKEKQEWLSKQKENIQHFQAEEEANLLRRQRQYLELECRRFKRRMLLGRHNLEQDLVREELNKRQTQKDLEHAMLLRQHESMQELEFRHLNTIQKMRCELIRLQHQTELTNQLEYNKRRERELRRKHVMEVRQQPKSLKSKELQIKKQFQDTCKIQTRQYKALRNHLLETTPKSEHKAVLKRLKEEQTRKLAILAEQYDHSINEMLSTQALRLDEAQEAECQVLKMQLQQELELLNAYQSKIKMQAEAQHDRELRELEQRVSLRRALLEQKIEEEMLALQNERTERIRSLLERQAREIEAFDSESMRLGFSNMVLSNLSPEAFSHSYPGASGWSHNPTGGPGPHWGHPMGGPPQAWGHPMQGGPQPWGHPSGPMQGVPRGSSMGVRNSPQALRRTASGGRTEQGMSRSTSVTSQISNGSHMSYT
In words: Selectivity interaction (KinomeScan (DiscoverX)) EUB0000655a TAOK1. To be noted: at 10 µM.

The target in assay [3] is Serine/threonine-protein kinase 25 (Homo sapiens) (UniProt O00506). In words: Selectivity interaction (ActivX KiNativ screen (ex vivo kinase selectivity in human PBMCs)) EUB0001619a STK25. It counts as cell-based. To be noted: PBMC, at 1 µM.
In assay [4] the target is T2, Serine/threonine-protein kinase STK11 (Homo sapiens) (UniProt Q15831).
T2 sequence (whole entry): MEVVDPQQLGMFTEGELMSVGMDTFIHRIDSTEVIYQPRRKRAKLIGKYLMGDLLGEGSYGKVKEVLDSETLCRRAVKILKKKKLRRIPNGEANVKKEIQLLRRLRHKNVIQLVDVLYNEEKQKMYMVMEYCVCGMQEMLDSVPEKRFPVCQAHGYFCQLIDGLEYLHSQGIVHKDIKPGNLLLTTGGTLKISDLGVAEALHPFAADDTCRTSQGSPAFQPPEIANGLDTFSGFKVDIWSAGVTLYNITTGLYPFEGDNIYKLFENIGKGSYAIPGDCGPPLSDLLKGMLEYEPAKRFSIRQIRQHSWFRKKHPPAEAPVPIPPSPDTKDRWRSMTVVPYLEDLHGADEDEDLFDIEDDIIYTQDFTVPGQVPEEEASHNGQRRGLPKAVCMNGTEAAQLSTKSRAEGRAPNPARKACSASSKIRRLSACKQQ
In words: Selectivity interaction (Kinase panel (literature)) EUB0001199aCl STK11. The settings on record: at 1 µM.

Assay [5] addresses SRSF protein kinase 2 (Homo sapiens) (UniProt P78362). To be noted: at 10 µM.
Assay [6] addresses T3, Serine/threonine-protein kinase Sgk1 (Homo sapiens) (UniProt O00141).
T3 sequence (whole entry): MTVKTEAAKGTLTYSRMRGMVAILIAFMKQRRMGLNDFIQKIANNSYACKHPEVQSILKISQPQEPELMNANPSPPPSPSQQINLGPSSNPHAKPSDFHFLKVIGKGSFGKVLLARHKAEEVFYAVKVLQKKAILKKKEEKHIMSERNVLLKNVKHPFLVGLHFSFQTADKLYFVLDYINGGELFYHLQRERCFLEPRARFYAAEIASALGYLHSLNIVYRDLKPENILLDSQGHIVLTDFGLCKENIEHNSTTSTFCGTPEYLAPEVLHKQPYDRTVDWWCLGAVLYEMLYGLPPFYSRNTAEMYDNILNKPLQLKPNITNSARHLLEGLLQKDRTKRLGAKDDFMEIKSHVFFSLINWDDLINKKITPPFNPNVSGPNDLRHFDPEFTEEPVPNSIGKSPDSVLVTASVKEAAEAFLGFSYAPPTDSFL
In words: Selectivity interaction (ProQinase) EUB0000171b SGK1.

Assay [7] concerns the target Serine/threonine-protein kinase mTOR (Homo sapiens, UniProt P42345). To be noted: at 10 µM.
The target in assay [8] is Serine/threonine-protein kinase PAK 1 (Homo sapiens) (UniProt Q13153). The assay is described as follows: Selectivity interaction (KinomeScan (DiscoverX)) EUB0000618a PAK1. To be noted: at 10 µM.
The target of assay [9] is T2, Serine/threonine-protein kinase STK11 (Homo sapiens). In words: Selectivity interaction (Upstate Kinase Profiler service (Millipore)) EUB0000056c STK11. To be noted: at 1 µM.
Assay [10] has as its target Atypical kinase COQ8A, mitochondrial (Homo sapiens, UniProt Q8NI60). The assay is described as follows: Selectivity interaction (KinomeScan (DiscoverX)) EUB0000595a ADCK3. To be noted: at 10 µM.

Chain of Serine/threonine-protein kinase 25 (Homo sapiens) (O00506 whole entry, looked up): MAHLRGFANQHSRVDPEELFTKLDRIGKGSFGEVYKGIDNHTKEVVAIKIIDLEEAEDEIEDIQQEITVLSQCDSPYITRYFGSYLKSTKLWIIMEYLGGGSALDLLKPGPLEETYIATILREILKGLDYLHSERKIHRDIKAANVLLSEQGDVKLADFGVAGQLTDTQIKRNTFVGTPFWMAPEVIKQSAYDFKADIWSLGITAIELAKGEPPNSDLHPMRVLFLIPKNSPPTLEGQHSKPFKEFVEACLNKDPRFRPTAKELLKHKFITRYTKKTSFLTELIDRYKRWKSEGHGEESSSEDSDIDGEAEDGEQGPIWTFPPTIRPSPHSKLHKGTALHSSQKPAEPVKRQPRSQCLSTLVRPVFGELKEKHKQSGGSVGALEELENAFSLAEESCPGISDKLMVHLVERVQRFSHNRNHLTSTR
Chain of SRSF protein kinase 2 (Homo sapiens) (P78362 whole entry, looked up): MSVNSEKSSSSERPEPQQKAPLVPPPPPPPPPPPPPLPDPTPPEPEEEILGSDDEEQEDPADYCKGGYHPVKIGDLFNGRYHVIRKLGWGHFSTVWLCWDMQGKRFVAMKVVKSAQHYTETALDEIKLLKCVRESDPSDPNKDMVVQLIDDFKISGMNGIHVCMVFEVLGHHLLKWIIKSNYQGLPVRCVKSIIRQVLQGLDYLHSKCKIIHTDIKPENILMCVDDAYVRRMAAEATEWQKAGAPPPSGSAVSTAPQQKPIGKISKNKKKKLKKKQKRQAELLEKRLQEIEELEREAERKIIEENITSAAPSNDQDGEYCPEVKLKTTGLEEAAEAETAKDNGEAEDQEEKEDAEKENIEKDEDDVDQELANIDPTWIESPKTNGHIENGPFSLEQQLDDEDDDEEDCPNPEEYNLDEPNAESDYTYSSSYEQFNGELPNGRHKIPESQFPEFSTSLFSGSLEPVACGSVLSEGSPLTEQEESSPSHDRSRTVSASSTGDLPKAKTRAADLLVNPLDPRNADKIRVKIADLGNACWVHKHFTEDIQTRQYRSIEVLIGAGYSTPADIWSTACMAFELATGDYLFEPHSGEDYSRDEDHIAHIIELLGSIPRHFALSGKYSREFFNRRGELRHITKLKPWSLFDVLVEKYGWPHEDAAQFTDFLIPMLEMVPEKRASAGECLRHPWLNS
Chain of Atypical kinase COQ8A, mitochondrial (Q8NI60 163-647 limits assumed): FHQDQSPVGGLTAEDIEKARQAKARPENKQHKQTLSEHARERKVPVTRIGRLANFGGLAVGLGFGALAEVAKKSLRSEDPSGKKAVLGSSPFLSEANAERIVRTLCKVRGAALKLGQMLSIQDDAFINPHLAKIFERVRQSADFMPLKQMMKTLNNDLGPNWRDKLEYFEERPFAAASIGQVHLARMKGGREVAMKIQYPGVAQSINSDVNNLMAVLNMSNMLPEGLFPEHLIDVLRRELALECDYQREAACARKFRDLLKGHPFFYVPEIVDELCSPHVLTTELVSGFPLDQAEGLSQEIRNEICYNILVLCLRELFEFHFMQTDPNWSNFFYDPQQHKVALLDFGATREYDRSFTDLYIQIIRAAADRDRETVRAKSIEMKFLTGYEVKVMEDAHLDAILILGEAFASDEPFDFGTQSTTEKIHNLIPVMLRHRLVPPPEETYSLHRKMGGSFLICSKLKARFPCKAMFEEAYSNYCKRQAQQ
Chain of Serine/threonine-protein kinase PAK 1 (Homo sapiens) (Q13153 whole entry): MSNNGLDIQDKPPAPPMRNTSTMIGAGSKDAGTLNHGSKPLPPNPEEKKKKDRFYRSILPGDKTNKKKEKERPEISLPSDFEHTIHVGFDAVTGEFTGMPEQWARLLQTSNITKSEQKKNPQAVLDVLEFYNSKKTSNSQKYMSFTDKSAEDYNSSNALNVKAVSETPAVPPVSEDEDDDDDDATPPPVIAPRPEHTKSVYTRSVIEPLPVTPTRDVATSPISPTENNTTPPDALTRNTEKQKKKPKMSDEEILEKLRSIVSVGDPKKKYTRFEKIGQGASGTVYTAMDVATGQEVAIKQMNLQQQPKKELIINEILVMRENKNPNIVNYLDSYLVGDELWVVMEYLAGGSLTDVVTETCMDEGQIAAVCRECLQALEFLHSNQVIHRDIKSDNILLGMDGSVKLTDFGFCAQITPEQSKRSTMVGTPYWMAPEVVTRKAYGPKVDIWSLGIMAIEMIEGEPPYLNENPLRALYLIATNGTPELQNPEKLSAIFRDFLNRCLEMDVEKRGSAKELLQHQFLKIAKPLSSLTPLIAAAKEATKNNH
Chain of TGF-beta receptor type-2 (Homo sapiens) (P37173 whole entry): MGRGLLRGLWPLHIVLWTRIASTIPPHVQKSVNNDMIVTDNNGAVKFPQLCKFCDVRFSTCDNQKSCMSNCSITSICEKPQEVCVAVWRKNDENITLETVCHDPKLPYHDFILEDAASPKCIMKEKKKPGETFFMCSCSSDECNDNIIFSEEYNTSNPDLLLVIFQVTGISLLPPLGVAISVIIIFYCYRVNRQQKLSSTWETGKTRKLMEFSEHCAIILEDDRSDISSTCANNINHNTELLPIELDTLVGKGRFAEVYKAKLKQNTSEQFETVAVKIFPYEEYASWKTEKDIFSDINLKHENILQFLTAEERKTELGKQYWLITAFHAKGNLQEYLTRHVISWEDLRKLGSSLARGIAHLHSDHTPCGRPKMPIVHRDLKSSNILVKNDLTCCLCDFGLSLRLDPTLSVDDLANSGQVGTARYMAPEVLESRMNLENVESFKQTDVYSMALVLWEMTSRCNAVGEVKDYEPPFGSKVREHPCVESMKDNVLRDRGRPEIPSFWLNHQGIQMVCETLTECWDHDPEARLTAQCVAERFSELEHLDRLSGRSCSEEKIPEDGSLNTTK

For the molecule `Cc1cc([C@@H](C)Nc2ccccc2C(=O)O)c2nc(N3CCOCC3)cc(=O)n2c1` [AZD-6482], in [1], the % of control turned out to be 95%.

In [2], `CN(C)CCOc1ccc(-c2nc(-c3ccncc3)c(-c3ccc4c(c3)CC/C4=N\O)[nH]2)cc1` gave a % of control of 81%.

As for `N#Cc1cccc(-c2c[nH]c3ncnc(N4CCOCC4)c23)c1`, the % of inhibition in assay [3] is 39%.

For the molecule `CN1Cc2nccc(-c3cn(C)nc3-c3ccc(F)cc3)c2C1=O`, the % of inhibition in assay [4] stood at 3%.

For `CCN(CC)CCCCNc1ncc2cc(-c3cc(OC)cc(OC)c3)c(NC(=O)NC(C)(C)C)nc2n1`, the % of control in assay [5] turned out to be 100%.

In the case of `C=CC(=O)Nc1cccc(C(=O)Nc2ccc(Nc3cc(-c4[nH]c(SC)nc4C)ccn3)cc2)c1`, the % of control stood at 49% in assay [6] (at 1 µM) and 15% in [6] (at 5 µM).

Consider `CCC(=O)N1CCN(c2ccc(-n3c(=O)ccc4cnc5ccc(-c6cnc7ccccc7c6)cc5c43)cc2C(F)(F)F)CC1`, for which, in assay [7], the % of control turned out to be 0%.

With `O[C@H]1CC[C@H](Nc2ncc3nc(Nc4c(F)cc(F)cc4F)n([C@H]4CCOC4)c3n2)CC1`, the % of control in [8] is 99%.

With `Cc1ccc(-c2ccc3c(ccc4sc5c(c43)NC[C@@H](C)NC5=O)n2)cn1`, the % of inhibition in assay [9] is -15%.

Molecule `COCC(=O)NC/C=C/c1ccc2ncnc(Nc3ccc(Oc4ccc(C)nc4)c(C)c3)c2c1` [CP-724714] returned a % of control in assay [10] of 100%.
